Reference: patent US20240409585A1, “MACROCYCLIC IMMUNOMODULATORS” (priority 2021, published 2024)
Bridge positions count the residues as written; N and C are the ends. Square brackets hold non-standard residues; d marks the D form. Peptide text beside a SMILES is read from it. * marks the point of attachment. ξ: configuration not given here. Phe(4-CH2NH2) = NCc1ccc(C[C@H](N)C(=O)O)cc1; Bip = N[C@@H](Cc1ccc(-c2ccccc2)cc1)C(=O)O; Phe(3-CN) = N#Cc1cccc(C[C@H](N)C(=O)O)c1; Phe(3-OMe) = COc1cccc(C[C@H](N)C(=O)O)c1; Phe(4-CN) = N#Cc1ccc(C[C@H](N)C(=O)O)cc1; Phe(2-CN) = N#Cc1ccccc1C[C@H](N)C(=O)O; Phe(3-Me) = Cc1cccc(C[C@H](N)C(=O)O)c1; Phe(2-F) = N[C@@H](Cc1ccccc1F)C(=O)O; aIle = CC[C@@H](C)[C@H](N)C(=O)O; 4Pal = N[C@@H](Cc1ccncc1)C(=O)O; Cha = N[C@@H](CC1CCCCC1)C(=O)O; Cit = NC(=O)NCCC[C@H](N)C(=O)O; Ile(3ξ) = CCC(C)[C@H](N)C(=O)O; Thr(3ξ) = CC(O)[C@H](N)C(=O)O; Carboxymethyl = O=C(O)C*; NMeA = CN[C@@H](C)C(=O)O; Orn = NCCC[C@H](N)C(=O)O; Dab = NCC[C@H](N)C(=O)O; Dap = NC[C@H](N)C(=O)O

molecular target: T1, PE-labeled human PD-L1-Ig binding to Jurkat cell line over-expressing human PD-1 (Jurkat-PD-1) (Homo sapiens, UniProt Q15116); experiment: Jurkat-PD-1 Cell Binding High-Content Screening Assay (CBA): Method 1; conditions: Jurkat-hPD-1 cells, PE-labeled PD-L1-Ig 20 nM final; read-out: Jurkat HPDL1 PD1 IC50 (uM) (Method 1)
T1 construct: expressed in transfected cells; host or cells: Jurkat
T1 sequence (Q15116 25-288): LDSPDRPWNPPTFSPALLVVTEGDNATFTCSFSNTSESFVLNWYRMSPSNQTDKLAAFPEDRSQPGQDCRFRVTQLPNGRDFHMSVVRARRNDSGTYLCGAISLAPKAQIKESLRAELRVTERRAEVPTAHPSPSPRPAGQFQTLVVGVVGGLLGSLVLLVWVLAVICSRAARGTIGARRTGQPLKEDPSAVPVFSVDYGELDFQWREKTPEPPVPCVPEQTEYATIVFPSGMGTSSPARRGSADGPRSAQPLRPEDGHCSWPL

Compound	IC50
CC(C)C[C@@H]1NC(=O)[C@H](Cc2c[nH]c3ccccc23)NC(=O)[C@H](CC(=O)O)NC(=O)[C@H](Cc2ccccc2C#N)NC(=O)[C@H](Cc2ccccc2)NC(=O)CSC[C@@H](C(=O)N[C@@H](C)C(N)=O)NC(=O)[C@H](CO)NC(=O)[C@H](C(C)C)NC(=O)[C@H](CC(C)C)NC(=O)[C@H](CC(N)=O)NC(=O)[C@@H](C)NC(=O)[C@H](C)N(C)C(=O)[C@H](C(C)C)NC(=O)[C@H](Cc2ccc(-c3ccccc3)cc2)NC1=O [Compound 1806] ({CH2CO}-F[Phe(2-CN)]DWL[Bip]V[NMeA][dA]NLVSCA-NH2; thioether N-14)	0.23 µM
CC(C)C[C@@H]1NC(=O)[C@H](Cc2c[nH]c3ccccc23)NC(=O)[C@H](CC(=O)O)NC(=O)[C@H](Cc2ccc(C#N)cc2)NC(=O)[C@H](Cc2ccccc2)NC(=O)CSC[C@@H](C(=O)NCC(N)=O)NC(=O)[C@H](CO)NC(=O)[C@H](C(C)C)NC(=O)[C@H](CC(C)C)NC(=O)[C@H](CC(N)=O)NC(=O)[C@@H](CC(C)C)NC(=O)[C@H](C)N(C)C(=O)[C@H](C(C)C)NC(=O)[C@H](Cc2ccc(-c3ccccc3)cc2)NC1=O [Compound 1525] ({CH2CO}-F[Phe(4-CN)]DWL[Bip]V[NMeA][dL]NLVSCG-NH2; thioether N-14)	0.03 µM
CC(C)C[C@@H]1NC(=O)[C@H](Cc2c[nH]c3ccccc23)NC(=O)[C@H](CC(=O)O)NC(=O)[C@H](Cc2ccc(O)cc2)NC(=O)[C@H](Cc2ccccc2)NC(=O)CSC[C@@H](C(=O)NCC(N)=O)NC(=O)[C@H](CO)NC(=O)[C@H](C(C)C)NC(=O)[C@H](CC(C)C)NC(=O)[C@H](CC(=O)O)NC(=O)[C@@H](CC(=O)O)NC(=O)[C@H](C)N(C)C(=O)[C@H](C(C)C)NC(=O)[C@H](Cc2ccc(-c3ccccc3)cc2)NC1=O [Compound 1829] ({CH2CO}-FYDWL[Bip]V[NMeA][dD]DLVSCG-NH2; thioether N-14)	0.85 µM
CC(C)C[C@H]1NC(=O)[C@H](C)N(C)C(=O)[C@H](CCC(=O)O)NC(=O)[C@H](Cc2ccc(-c3ccccc3)cc2)NC(=O)[C@H](C(C)C)NC(=O)[C@H](Cc2c[nH]c3ccccc23)NC(=O)[C@H](CC(N)=O)NC(=O)[C@H](Cc2ccc(O)cc2)NC(=O)[C@H](Cc2ccncc2)NC(=O)CSC[C@@H](C(=O)N[C@@H](C)C(N)=O)NC(=O)[C@H](C(C)O)NC(=O)[C@H](C(C)C)NC(=O)[C@H](CC2CCCCC2)NC(=O)[C@H](CCN)NC1=O (stereo partly drawn) [Compound 2088] ({CH2CO}-[4Pal]YNWV[Bip]E[NMeA][dL][Dab][Cha]V[Thr(3ξ)]CA-NH2; thioether N-14)	0.17 µM
CC(C)C[C@@H]1NC(=O)[C@H](CCCN)NC(=O)[C@@H](CC(C)C)NC(=O)[C@H](C)N(C)C(=O)[C@H](CCCNC(=N)N)NC(=O)[C@H](Cc2ccc(-c3ccccc3)cc2)NC(=O)[C@H](C(C)C)NC(=O)[C@H](Cc2c[nH]c3ccccc23)NC(=O)[C@H](CC(=O)O)NC(=O)[C@H](Cc2ccc(O)cc2)NC(=O)[C@H](CC(N)=O)NC(=O)CSC[C@@H](C(=O)N[C@@H](C)C(N)=O)NC(=O)[C@H]([C@@H](C)O)NC(=O)[C@H](C(C)C)NC1=O [Compound 1128] ({CH2CO}-NYDWV[Bip]R[NMeA][dL][Orn]LVTCA-NH2; thioether N-14)	0.08 µM
CC[C@H](C)[C@@H]1NC(=O)[C@H](Cc2ccc(-c3ccccc3)cc2)NC(=O)[C@H](C(C)C)NC(=O)[C@H](Cc2c[nH]c3ccccc23)NC(=O)[C@H](CC(=O)O)NC(=O)[C@H](Cc2cccc(C#N)c2)NC(=O)[C@H](Cc2ccncc2)NC(=O)CSC[C@@H](C(=O)N[C@@H](C)C(N)=O)NC(=O)[C@H]([C@@H](C)O)NC(=O)[C@H](C(C)C)NC(=O)[C@H](CC(C)C)NC(=O)[C@H](CCN)NC(=O)[C@@H](CC(C)C)NC(=O)[C@H](C)N(C)C1=O [Compound 1407] ({CH2CO}-[4Pal][Phe(3-CN)]DWV[Bip]I[NMeA][dL][Dab]LVTCA-NH2; thioether N-14)	0.04 µM
CC(C)C[C@@H]1NC(=O)[C@H](CCCCN)NC(=O)[C@@H](CC(C)C)NC(=O)[C@H](C)N(C)C(=O)[C@H](CCCNC(N)=O)NC(=O)[C@H](Cc2ccc(-c3ccccc3)cc2)NC(=O)[C@H](C(C)C)NC(=O)[C@H](Cc2c[nH]c3ccccc23)NC(=O)[C@H](CC(=O)O)NC(=O)[C@H](Cc2ccc(O)cc2)NC(=O)[C@H](CC(N)=O)NC(=O)CSC[C@@H](C(=O)NCC(N)=O)NC(=O)[C@H]([C@@H](C)O)NC(=O)[C@H](C(C)C)NC1=O [Compound 1475] ({CH2CO}-NYDWV[Bip][Cit][NMeA][dL]KLVTCG-NH2; thioether N-14)	0.05 µM
CC[C@@H](C)[C@@H]1NC(=O)[C@H](Cc2ccc(-c3ccccc3)cc2)NC(=O)[C@H](CC(C)C)NC(=O)[C@H](Cc2cccc(C)c2)NC(=O)[C@H](CC(=O)O)NC(=O)[C@H](Cc2ccncc2)NC(=O)[C@H](Cc2ccc(OCC(=O)O)cc2)NC(=O)CSC[C@@H](C(N)=O)NC(=O)[C@H](CO)NC(=O)[C@H](C(C)C)NC(=O)[C@H](CC(C)C)NC(=O)[C@H](CC(N)=O)NC(=O)[C@@H](CC(C)C)NC(=O)[C@H](C)N(C)C1=O [Compound 1638] ({CH2CO}-Y(Carboxymethyl)[4Pal]D[Phe(3-Me)]L[Bip][aIle][NMeA][dL]NLVSC-NH2; thioether N-14)	0.07 µM
CC(C)C[C@@H]1NC(=O)[C@H](CCN)NC(=O)[C@@H](CC(C)C)NC(=O)[C@H](C)N(C)C(=O)[C@H](CCCNC(N)=O)NC(=O)[C@H](Cc2ccc(-c3ccccc3)cc2)NC(=O)[C@H](C(C)C)NC(=O)[C@H](Cc2c[nH]c3ccccc23)NC(=O)[C@H](CC(=O)O)NC(=O)[C@H](Cc2ccc(O)cc2)NC(=O)[C@H](CCCN)NC(=O)CSC[C@@H](C(=O)N[C@@H](C)C(N)=O)NC(=O)[C@H]([C@@H](C)O)NC(=O)[C@H](C(C)C)NC1=O [Compound 1347] ({CH2CO}-[Orn]YDWV[Bip][Cit][NMeA][dL][Dab]LVTCA-NH2; thioether N-14)	0.03 µM
CCC(C)[C@@H]1NC(=O)[C@H](Cc2ccc(-c3ccccc3)cc2)NC(=O)[C@H](C(C)C)NC(=O)[C@H](Cc2c[nH]c3ccccc23)NC(=O)[C@H](CC(=O)O)NC(=O)[C@H](Cc2ccc(O)cc2)NC(=O)[C@H](Cc2ccncc2)NC(=O)CSC[C@@H](C(=O)N[C@@H](CN)C(=O)O)NC(=O)[C@H](C(C)O)NC(=O)[C@H](C(C)C)NC(=O)[C@H](CC2CCCCC2)NC(=O)[C@H](CC(N)=O)NC(=O)[C@@H](CC(C)C)NC(=O)[C@H](C)N(C)C1=O (stereo partly drawn) [Compound 2210] ({CH2CO}-[4Pal]YDWV[Bip][Ile(3ξ)][NMeA][dL]N[Cha]V[Thr(3ξ)]C[Dap]-OH; thioether N-14)	0.02 µM
COc1cccc(C[C@@H]2NC(=O)[C@H](CC(=O)O)NC(=O)[C@H](Cc3ccc(O)cc3)NC(=O)[C@H](CC(N)=O)NC(=O)CSC[C@@H](C(=O)N[C@@H](C)C(N)=O)NC(=O)[C@H]([C@@H](C)O)NC(=O)[C@H](C(C)C)NC(=O)[C@H](CC(C)C)NC(=O)[C@H](CCCNC(N)=O)NC(=O)[C@@H](CC(C)C)NC(=O)[C@H](C)N(C)C(=O)[C@H](CCCNC(=N)N)NC(=O)[C@H](Cc3ccc(-c4ccccc4)cc3)NC(=O)[C@H](C(C)C)NC2=O)c1 [Compound 1191] ({CH2CO}-NYD[Phe(3-OMe)]V[Bip]R[NMeA][dL][Cit]LVTCA-NH2; thioether N-14)	0.07 µM
CC(C)C[C@@H]1NC(=O)[C@H](CCN)NC(=O)[C@@H](CC(C)C)NC(=O)[C@H](C)N(C)C(=O)[C@H](Cc2cnc[nH]2)NC(=O)[C@H](Cc2ccc(-c3ccccc3)cc2)NC(=O)[C@H](C(C)C)NC(=O)[C@H](Cc2c[nH]c3ccccc23)NC(=O)[C@H](CC(=O)O)NC(=O)[C@H](Cc2ccccc2F)NC(=O)[C@H](CN)NC(=O)CSC[C@@H](C(=O)N[C@@H](C)C(N)=O)NC(=O)[C@H]([C@@H](C)O)NC(=O)[C@H](C(C)C)NC1=O [Compound 1425] ({CH2CO}-[Dap][Phe(2-F)]DWV[Bip]H[NMeA][dL][Dab]LVTCA-NH2; thioether N-14)	0.14 µM
CC(C)C[C@@H]1NC(=O)[C@H](CCCNC(=N)N)NC(=O)[C@@H](CC(C)C)NC(=O)[C@H](C)N(C)C(=O)[C@H](CCCNC(=N)N)NC(=O)[C@H](Cc2ccc(-c3ccccc3)cc2)NC(=O)[C@H](C(C)C)NC(=O)[C@H](Cc2c[nH]c3ccccc23)NC(=O)[C@H](CC(=O)O)NC(=O)[C@H](Cc2ccc(CN)cc2)NC(=O)[C@H](Cc2ccccc2)NC(=O)CSC[C@@H](C(=O)N[C@@H](C)C(N)=O)NC(=O)[C@H]([C@@H](C)O)NC(=O)[C@H](C(C)C)NC1=O [Compound 1083] ({CH2CO}-F[Phe(4-CH2NH2)]DWV[Bip]R[NMeA][dL]RLVTCA-NH2; thioether N-14)	0.25 µM
CC(C)C[C@@H]1NC(=O)[C@H](CCN)NC(=O)[C@@H](CC(C)C)NC(=O)[C@H](C)N(C)C(=O)[C@H](C(C)C)NC(=O)[C@H](Cc2ccc(-c3ccccc3)cc2)NC(=O)[C@H](C(C)C)NC(=O)[C@H](Cc2c[nH]c3ccccc23)NC(=O)[C@H](CC(=O)O)NC(=O)[C@H](Cc2ccc(O)cc2)NC(=O)[C@H](Cc2cnc[nH]2)NC(=O)CSC[C@@H](C(=O)N[C@@H](C)C(N)=O)NC(=O)[C@H]([C@@H](C)O)NC(=O)[C@H](C(C)C)NC1=O [Compound 1358] ({CH2CO}-HYDWV[Bip]V[NMeA][dL][Dab]LVTCA-NH2; thioether N-14)	0.01 µM
CC(C)C[C@@H]1NC(=O)[C@H](CCN)NC(=O)[C@@H](CC(C)C)NC(=O)[C@H](C)N(C)C(=O)[C@H](CC(=O)O)NC(=O)[C@H](Cc2ccc(-c3ccccc3)cc2)NC(=O)[C@H](C(C)C)NC(=O)[C@H](Cc2c[nH]c3ccccc23)NC(=O)[C@H](CC(=O)O)NC(=O)[C@H](Cc2ccc(O)cc2)NC(=O)[C@H](CC(N)=O)NC(=O)CSC[C@@H](C(=O)N[C@@H](C)C(N)=O)NC(=O)[C@H]([C@@H](C)O)NC(=O)[C@H](C(C)C)NC1=O [Compound 1260] ({CH2CO}-NYDWV[Bip]D[NMeA][dL][Dab]LVTCA-NH2; thioether N-14)	0.17 µM
CC(C)C[C@@H]1NC(=O)[C@H](CCN)NC(=O)[C@@H](CC(C)C)NC(=O)[C@H](C)N(C)C(=O)[C@H](CCCNC(=N)N)NC(=O)[C@H](Cc2ccc(-c3ccccc3)cc2)NC(=O)[C@H](C(C)C)NC(=O)[C@H](Cc2c[nH]c3ccccc23)NC(=O)[C@H](CC(=O)O)NC(=O)[C@H](Cc2ccc(O)cc2)NC(=O)[C@H](Cc2cnc[nH]2)NC(=O)CSC[C@@H](C(=O)N[C@@H](C)C(N)=O)NC(=O)[C@H]([C@@H](C)O)NC(=O)[C@H](C(C)C)NC1=O [Compound 1051] ({CH2CO}-HYDWV[Bip]R[NMeA][dL][Dab]LVTCA-NH2; thioether N-14)	0.15 µM
